From PubChem BioAssay AID1963425 (Molecular Pharmacology Branch, DTP, NCI, 2024)

Tested on: 323965-272-R-J2-PDC complex spheroid growth, % test/control
Assay: Anticancer human tumor 323965-272-R-J2-PDC patient-derived pancreatic carcinoma cell line growth inhibition [Asc]
Details: for IC50: curve of first compound; for viability, T/C: stronger effect = lower value
Procedure, shortened: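 Spheroid model: tumor line + HUVEC + hMSC. Single agents and combinations; top conc. at/near clinical Cmax (10 microM if undetermined), half-log dilutions. DMSO stocks at 800-fold test concentration.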

[1] = second compound 0.00949 µM, first compound 0.0316 µM
[2] = second compound 0.00949 µM, first compound 0.1 µM
[3] = second compound 0.00949 µM, first compound 0.316 µM
[4] = second compound 0.00949 µM, first compound 1 µM
[5] = second compound 0.00949 µM, first compound 3.16 µM
[6] = second compound 0.00949 µM, first compound 10 µM
[7] = second compound 0.03 µM, first compound 0.0316 µM
[8] = second compound 0.03 µM, first compound 0.1 µM
[9] = second compound 0.03 µM, first compound 0.316 µM
[10] = second compound 0.03 µM, first compound 1 µM
[11] = second compound 0.03 µM, first compound 3.16 µM
[12] = second compound 0.03 µM, first compound 10 µM
[13] = second compound 0.0949 µM, first compound 0.0316 µM
[14] = second compound 0.0949 µM, first compound 0.1 µM
[15] = second compound 0.0949 µM, first compound 0.316 µM
[16] = second compound 0.0949 µM, first compound 1 µM
[17] = second compound 0.0949 µM, first compound 3.16 µM
[18] = second compound 0.0949 µM, first compound 10 µM
[19] = second compound 0.3 µM, first compound 0.0316 µM
[20] = second compound 0.3 µM, first compound 0.1 µM
[21] = second compound 0.3 µM, first compound 0.316 µM
[22] = second compound 0.3 µM, first compound 1 µM
[23] = second compound 0.3 µM, first compound 3.16 µM
[24] = second compound 0.3 µM, first compound 10 µM
[25] = second compound 0.949 µM, first compound 0.0316 µM
[26] = second compound 0.949 µM, first compound 0.1 µM
[27] = second compound 0.949 µM, first compound 0.316 µM
[28] = second compound 0.949 µM, first compound 1 µM
[29] = second compound 0.949 µM, first compound 3.16 µM
[30] = second compound 0.949 µM, first compound 10 µM
[31] = second compound 3 µM, first compound 0.0316 µM
[32] = second compound 3 µM, first compound 0.1 µM
[33] = second compound 3 µM, first compound 0.316 µM
[34] = second compound 3 µM, first compound 1 µM
[35] = second compound 3 µM, first compound 3.16 µM
[36] = second compound 3 µM, first compound 10 µM
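Note: compound exposure lasted 7 days starting three days after spheroid seeding.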
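Throughout, for viability, T/C: 100% = DMSO vehicle control wells with viability set relative to vehicle.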

**Q.** How did the IC50 (second compound 0.00316 µM) turn out when `CCN1CCN(Cc2ccc(Nc3ncc(F)c(-c4cc(F)c5nc(C)n(C(C)C)c5c4)n3)nc2)CC1` + CNC(C)C(=O)NC1CN(S(=O)(=O)c2cccc(S(=O)(=O)N3CCC4CCC(C(=O)NC(c5ccccc5)c5ccccc5)N4C(=O)C(NC(=O)C(C)NC)C3)c2)CCC2CCC(C(=O)NC(c3ccccc3)c3ccccc3)N2C1=O was run?
**A.** > 1 µM

**Q.** And the IC50 (second compound 0.01 µM)?
**A.** > 1 µM

**Q.** And the IC50 (second compound 0.0316 µM)?
**A.** > 1 µM

**Q.** What about the IC50 (second compound 0.1 µM) of the same compound?
**A.** > 1 µM

**Q.** And the IC50 (second compound 0.316 µM)?
**A.** > 1 µM

**Q.** What about the IC50 (second compound 1 µM) of the same compound?
**A.** > 1 µM

**Q.** What about the viability, T/C (second compound 0.00316 µM, first compound 0.00316 µM) of the same compound?
**A.** 108%

**Q.** What about the viability, T/C (second compound 0.00316 µM, first compound 0.01 µM) of the same compound?
**A.** 88.7%

**Q.** And the viability, T/C (second compound 0.00316 µM, first compound 0.0316 µM)?
**A.** 96.8%

**Q.** And the viability, T/C (second compound 0.00316 µM, first compound 0.1 µM)?
**A.** 83.6%

**Q.** What about the viability, T/C (second compound 0.00316 µM, first compound 0.316 µM) of the same compound?
**A.** 81.5%

**Q.** And the viability, T/C (second compound 0.00316 µM, first compound 1 µM)?
**A.** 77.2%

**Q.** And the viability, T/C (second compound 0.01 µM, first compound 0.00316 µM)?
**A.** 98.1%

**Q.** And the viability, T/C (second compound 0.01 µM, first compound 0.01 µM)?
**A.** 95%

**Q.** What about the viability, T/C (second compound 0.01 µM, first compound 0.0316 µM) of the same compound?
**A.** 97.5%

**Q.** And the viability, T/C (second compound 0.01 µM, first compound 0.1 µM)?
**A.** 70%

**Q.** And the viability, T/C (second compound 0.01 µM, first compound 0.316 µM)?
**A.** 85.6%

**Q.** What about the viability, T/C (second compound 0.01 µM, first compound 1 µM) of the same compound?
**A.** 79%

**Q.** And the viability, T/C (second compound 0.0316 µM, first compound 0.00316 µM)?
**A.** 101%

**Q.** And the viability, T/C (second compound 0.0316 µM, first compound 0.01 µM)?
**A.** 95.3%

**Q.** And the viability, T/C (second compound 0.0316 µM, first compound 0.0316 µM)?
**A.** 87.2%

**Q.** What about the viability, T/C (second compound 0.0316 µM, first compound 0.1 µM) of the same compound?
**A.** 76.1%

**Q.** And the viability, T/C (second compound 0.0316 µM, first compound 0.316 µM)?
**A.** 75%

**Q.** And the viability, T/C (second compound 0.0316 µM, first compound 1 µM)?
**A.** 72.4%

**Q.** And the viability, T/C (second compound 0.1 µM, first compound 0.00316 µM)?
**A.** 104%

**Q.** And the viability, T/C (second compound 0.1 µM, first compound 0.01 µM)?
**A.** 106%

**Q.** What about the viability, T/C (second compound 0.1 µM, first compound 0.0316 µM) of the same compound?
**A.** 96.6%

**Q.** What about the viability, T/C (second compound 0.1 µM, first compound 0.1 µM) of the same compound?
**A.** 76.5%

**Q.** What about the viability, T/C (second compound 0.1 µM, first compound 0.316 µM) of the same compound?
**A.** 78.4%

**Q.** What about the viability, T/C (second compound 0.1 µM, first compound 1 µM) of the same compound?
**A.** 82.5%

**Q.** And the viability, T/C (second compound 0.316 µM, first compound 0.00316 µM)?
**A.** 102%

**Q.** What about the viability, T/C (second compound 0.316 µM, first compound 0.01 µM) of the same compound?
**A.** 101%

**Q.** What about the viability, T/C (second compound 0.316 µM, first compound 0.0316 µM) of the same compound?
**A.** 95.4%

**Q.** And the viability, T/C (second compound 0.316 µM, first compound 0.1 µM)?
**A.** 69.6%

**Q.** What about the viability, T/C (second compound 0.316 µM, first compound 0.316 µM) of the same compound?
**A.** 70.6%

**Q.** What about the viability, T/C (second compound 0.316 µM, first compound 1 µM) of the same compound?
**A.** 83.6%

**Q.** What about the viability, T/C (second compound 1 µM, first compound 0.00316 µM) of the same compound?
**A.** 87.4%

**Q.** What about the viability, T/C (second compound 1 µM, first compound 0.01 µM) of the same compound?
**A.** 85.9%

**Q.** What about the viability, T/C (second compound 1 µM, first compound 0.0316 µM) of the same compound?
**A.** 90.6%

**Q.** What about the viability, T/C (second compound 1 µM, first compound 0.1 µM) of the same compound?
**A.** 67.7%

**Q.** What about the viability, T/C (second compound 1 µM, first compound 0.316 µM) of the same compound?
**A.** 79.7%

**Q.** What about the viability, T/C (second compound 1 µM, first compound 1 µM) of the same compound?
**A.** 74.2%

**Q.** How did the IC50 (second compound 0.00949 µM) turn out when `O=C(c1cc(Cc2n[nH]c(=O)c3ccccc23)ccc1F)N1CCN(C(=O)C2CC2)CC1` + CCN1C(C(=O)NC23CCC(C(=O)O)(CC2)CC3)C(c2cccc(Cl)c2F)C2(C(=O)Nc3cc(Cl)ccc32)C12CCCCC2 was run?
**A.** > 10 µM

**Q.** What about the IC50 (second compound 0.03 µM) of the same compound?
**A.** > 10 µM

**Q.** And the IC50 (second compound 0.0949 µM)?
**A.** > 10 µM

**Q.** And the IC50 (second compound 0.3 µM)?
**A.** > 10 µM

**Q.** And the IC50 (second compound 0.949 µM)?
**A.** > 10 µM

**Q.** And the IC50 (second compound 3 µM)?
**A.** > 10 µM

**Q.** And the viability, T/C [1]?
**A.** 106%

**Q.** What about the viability, T/C [2] of the same compound?
**A.** 107%

**Q.** And the viability, T/C [3]?
**A.** 113%

**Q.** What about the viability, T/C [4] of the same compound?
**A.** 110%

**Q.** And the viability, T/C [5]?
**A.** 110%

**Q.** And the viability, T/C [6]?
**A.** 91.5%

**Q.** And the viability, T/C [7]?
**A.** 103%

**Q.** What about the viability, T/C [8] of the same compound?
**A.** 111%

**Q.** And the viability, T/C [9]?
**A.** 106%

**Q.** What about the viability, T/C [10] of the same compound?
**A.** 106%

**Q.** What about the viability, T/C [11] of the same compound?
**A.** 107%

**Q.** What about the viability, T/C [12] of the same compound?
**A.** 95.8%

**Q.** What about the viability, T/C [13] of the same compound?
**A.** 113%

**Q.** What about the viability, T/C [14] of the same compound?
**A.** 107%

**Q.** What about the viability, T/C [15] of the same compound?
**A.** 111%

**Q.** What about the viability, T/C [16] of the same compound?
**A.** 108%

**Q.** What about the viability, T/C [17] of the same compound?
**A.** 116%

**Q.** What about the viability, T/C [18] of the same compound?
**A.** 100%

**Q.** What about the viability, T/C [19] of the same compound?
**A.** 116%

**Q.** What about the viability, T/C [20] of the same compound?
**A.** 107%

**Q.** What about the viability, T/C [21] of the same compound?
**A.** 117%

**Q.** What about the viability, T/C [22] of the same compound?
**A.** 117%

**Q.** What about the viability, T/C [23] of the same compound?
**A.** 103%

**Q.** And the viability, T/C [24]?
**A.** 97.5%

**Q.** What about the viability, T/C [25] of the same compound?
**A.** 112%

**Q.** And the viability, T/C [26]?
**A.** 106%

**Q.** And the viability, T/C [27]?
**A.** 122%

**Q.** And the viability, T/C [28]?
**A.** 95.4%

**Q.** And the viability, T/C [29]?
**A.** 109%

**Q.** What about the viability, T/C [30] of the same compound?
**A.** 85.1%

**Q.** And the viability, T/C [31]?
**A.** 102%

**Q.** What about the viability, T/C [32] of the same compound?
**A.** 105%

**Q.** And the viability, T/C [33]?
**A.** 107%

**Q.** And the viability, T/C [34]?
**A.** 105%

**Q.** And the viability, T/C [35]?
**A.** 92.4%

**Q.** What about the viability, T/C [36] of the same compound?
**A.** 93.3%

**Q.** What does the source list for `C=C(F)C(=O)N1CCN(c2nc(OCC3CCCN3C)nc3c2CCN(c2cccc4cccc(Cl)c24)C3)CC1CC#N` (stereo unspecified) + CCN1C(C(=O)NC23CCC(C(=O)O)(CC2)CC3)C(c2cccc(Cl)c2F)C2(C(=O)Nc3cc(Cl)ccc32)C12CCCCC2?
**A.** IC50 (second compound 0.00949 µM): > 10 µM; IC50 (second compound 0.03 µM): 5.59 µM; IC50 (second compound 0.0949 µM): 5.62 µM; IC50 (second compound 0.3 µM): 5.79 µM; IC50 (second compound 0.949 µM): 5.21 µM; IC50 (second compound 3 µM): 4.67 µM; viability, T/C [1]: 62.2%; viability, T/C [2]: 64%; viability, T/C [3]: 61.5%; viability, T/C [4]: 58.6%; viability, T/C [5]: 85.7%; viability, T/C [6]: 32.8%; viability, T/C [7]: 79%; viability, T/C [8]: 65.3%; viability, T/C [9]: 59.7%; viability, T/C [10]: 61.2%; viability, T/C [11]: 81.8%; viability, T/C [12]: 30.2%; viability, T/C [13]: 73.4%; viability, T/C [14]: 60%; viability, T/C [15]: 60.5%; viability, T/C [16]: 63.7%; viability, T/C [17]: 74.3%; viability, T/C [18]: 33.5%; viability, T/C [19]: 81.1%; viability, T/C [20]: 64.4%; viability, T/C [21]: 65%; viability, T/C [22]: 66.3%; viability, T/C [23]: 74.8%; viability, T/C [24]: 31.8%; viability, T/C [25]: 73.4%; viability, T/C [26]: 65.9%; viability, T/C [27]: 63.8%; viability, T/C [28]: 62.7%; viability, T/C [29]: 83.8%; viability, T/C [30]: 24.1%; viability, T/C [31]: 70.7%; viability, T/C [32]: 57%; viability, T/C [33]: 61%; viability, T/C [34]: 71.9%; viability, T/C [35]: 82.3%; viability, T/C [36]: 13.8%
